In patent US8129340B2, “Inhibitors of protein phosphatase 1, GADD34 and protein phosphatase 1/GADD34 complex, preparation and uses thereof” (Institut Gustave Roussy, priority 2006, dated 2012):

Assays:
CT26 tumour cells [1] = assay: Anti-tumour vaccination: dying treated CT26 cells injected in one flank, later challenge with live tumour cells; assay type: in vivo, BALB/c mice
CT26 cells = assay: Phagocytosis of CT26 tumour cells by dendritic cells (FACS, double positive cells); assay type: cell-based, BALB/c mice
Procedure: FIG. 3A, FIG. 3B: Correlation between tumour cell phagocytosis and CRT exposure. Tumour cells labelled with Cell Tracker Green were cultured with CD11c-expressing DC and the percentage of DC taking up tumour cells was determined (A) and correlated with the CRT surface exposure (B), measured as in FIG. 2E.
Mitoxantrone-treated or control cells were incubated with a blocking chicken anti-CRT antibody, followed by detection of phagocytosis by CD.
Cells were transfected with the indicated siRNAs and optionally treated with rCRT, followed by immunoblot (FIG. 3D) detection of surface CRT (FIG. 3E) and phagocytosis by DC (FIG. 3F). Results are triplicates (X±SD) and representative of three independent experiments. * denotes statistically significant differences using the Student t′ test at p<0.001.
BM cells were flushed from the tibias and femurs of BALB/c mice with culture medium composed of RPMI 1640 medium (Invitrogen Life Technologies) supplemented with 10% heat-inactivated FBS (Invitrogen), sodium pyruvate, 50 μM 2-ME (Sigma), 10 mM HEPES (pH 7.4), and penicillin/streptomycin (Invitrogen). After one centrifugation, BM cells were resuspended in Tris-ammonium chloride for 2 min to lyse RBC. After one more centrifugation, BM cells (1×10^6 cells/ml) were cultured in medium supplemented with 100 ng/ml recombinant mouse FLT3 ligand (R&D systems) in 6-well plates (Costar Corning). After 7 days, the non-adherent and loosely adherent cells were harvested with Versene, washed and transferred in 12-well plates (1.5×10^6 cells/plate) for cocultures with tumour cells.
In 12-well plates, […] adherent CT26 cells were labelled with Celltracker Green (Calbiochem) and then incubated with drugs. In some experiments viable CT26 were coated with 2 μg/10^6 cells of chicken anti-CRT antibody (ABR affinity bioreagents) or an isotype control for 30 min prior to washing and feeding to dendritic cells Cs. Alternatively CT26 cells were coated with 2 μg/10^6 cells of rCRT on ice for 30 min and washed twice prior to addition to dendritic cells. Cells were then harvested, washed three times with medium supplemented with FBS and cocultured with immature DC for 2 hours at a ratio of 1:1 and 1:5. At the end of the incubation, cells were harvested with versene, pooled with non-adherent cells present in the supernatant, washed and stained with CD11c-FITC antibody. Phagocytosis was assessed by FACS analysis of double positive cells. Phagocytic indexes refer to the ratio between values obtained at 4° C. and values obtained at 37° C. of co-incubation between DC and tumour cells.

CRT [2] = assay: Biotinylation of cell surface proteins, 2D gel electrophoresis and mass spectrometry; assay type: cell-based, murine; details: CT26 cells, short-term (4 h) treatment, versus untreated
ERP57 = assay: Biotinylation of cell surface proteins, 2D gel electrophoresis and mass spectrometry (ERP57 spot); assay type: cell-based, murine; details: CT26 cells, short-term (4 h) treatment
CT26 tumours [3] = assay: Intratumoural treatment of established CT26 tumours in immunodeficient mice; assay type: in vivo, athymic nu/nu Balb/c mice; details: for therapeutic effect of single agent on established tumours, nu/nu mice: single intratumoural injection
cell surface CRT = assay: Fluorescence detection of cell surface CRT on CT26 cells (cytofluorometry); assay type: cell-based, murine; details: agent alone
Procedure: FIG. 1SA, FIG. 1SB: Kinetics of CRT exposure. CT26 cells were treated with mitoxantrone for the indicated period, followed by immunofluorescence staining with a CRT-specific antibody and cytofluorometric analysis.
FIG. 2E: Correlation between CRT exposure and immunogenicity. The surface exposure of CRT was determined by immunofluorescence cytometry while gating on viable (propidium iodine-negative) cells (inserts) and was correlated with the immunogenicity of cell death (as determined in FIG. 1). CO, control; Tg, thapsigargin; Tu, tunicamycin.
FIG. 5E: Kinetics of CRT exposure determined by FACS analysis after incubation of cells with the indicated agents.
FIG. 5F-FIG. 5G: PP1/GADD34 inhibitors render cell immunogenic via CRT. Tumour cells were first transfected with a control siRNA or a CRT-specific siRNA and then treated in vitro with etoposide, alone or in combination with PP1/GADD34 inhibitors. […] The results represent the % of tumour free mice (comprising a total of 12 to 18 mice per group).
CT26 cells (on a glass slide or in 12-well plates) were first washed with FACS buffer (1×PBS, 5% fetus bovine serum, and 0.1% sodium azide) and then incubated with rabbit anti-mouse CRT antibody (1:100, Stressgen) in FACS buffer at 4° C. for 30 min. Cells reacted with anti-rabbit IgG (H+L) Alexa fluor 488-conjugates (1:500) in FACS buffer at 4° C. for 30 min. After washing three times with FACS buffer, surface CRT was detected by cytofluorometric analysis on a FACS Vantage. In some experiments, cells were fixed with 4% paraformaldehyde, counterstained with Hoechst (2 μM; Sigma), followed by fluorescence microscopic assessment with a Leica IRE2 microscope equipped with a DC300F camera.

CRT [4] = assay: CRT exposure on tumour cell lines of murine origin (MCA205, B16F10, J558); assay type: cell-based
CRT [5] = assay: CRT exposure on tumour cell lines of human origin (HeLa, A549, HCT116); assay type: cell-based
CT26 tumours [6] = assay: Intratumoural treatment of established CT26 tumours in immunocompetent mice; assay type: in vivo, BALB/c mice (wild type); details: for therapeutic effect combined with a cell death inducer (etoposide or mitomycin C), immunocompetent mice: intratumoural injection with etoposide or mitomycin C; for therapeutic effect of single agent on established tumours, immunocompetent mice: single intratumoural injection, 14-day-old CT26 tumours
calreticulin [7] = assay: Calreticulin exposure by immunofluorescence staining and flow cytometry, HCT116 cells; assay type: cell-based, human; details: 2 hours
Procedure: (§1) HCT116 cells (FIG. 7A) or CT26 cells (FIG. 7B) were cultured in complete mediums supplemented with 10% fetal calf serum alone or in the presence of the control peptide (VKKKKIKREIKI-lkaravafsekv) (SEQ ID NO: 17) or the PP1/GADD34 inhibitory peptide (VKKKKIKREIKI-lkarkvrfsekv, SEQ ID NO: 4. denominated PP1 peptide) for 2 hours. Cells were washed twice with PBS and fixed in PFA (4% w/v) for 5 min. Cells were stained with an antibody against calreticulin (pAb from Abeam, ab2907) at 1:200 dilution or isotype control, in staining buffer (PBS, 1% FCS) for 30 min on ice, followed by washing. An anti-rabbit Alexa fluor 488 immunoglobulin conjugate (Molecular Probes-Invitrogen) diluted at 1:500 was added for an additional 30 min on ice before washing and analysed by flow cytometry (FACScan, Becton Dickinson). Propidium Iodide (50 μg/ml, Becton Dickinson) was added to the samples to label and exclude permeabilized (dead) cells.

CT26 colon cancer = assay: Intratumoural peptides with systemic mitomycin C against established CT26 colon cancer (tumor size, survival); assay type: in vivo, BALB/c mice; details: 10 micrograms peptide in situ plus systemic mitomycin C
Procedure: CT26 cells were injected se in BALB/c mice. At a size of 20 mm^2, the palpable tumors were directly inoculated in situ with 10 micrograms of either of the three following peptides (see below) alone or together with a systemic treatment with mitomycin C (as described in Obeid et al. Nat Med 2007) or PBS. • 1. Cell-penetrable PP1 inhibitory peptide VKKKKIKREIKI-LKARKVRFSEKV (SEQ ID NO: 4) • 2. Cell-penetrable control peptide VKKKKIKREIKI-LKARAVRFSEKV (SEQ ID NO: 18) • 3. Cell penetration sequence VKKKKIKREIKI (SEQ ID NO: 3) alone admixed together with PP1-inhibitory peptide LKARKVRFSEKV (SEQ ID NO: 2) alone.
5 animals/group were included in this experiment.

calreticulin [8] = assay: Calreticulin exposure by immunofluorescence staining and flow cytometry, CT26 cells (peptide test); assay type: cell-based, murine; details: 2 hours
Procedure: as §1

CT26 tumour cells [9] = assay: Local immune response: tumour cells injected into foot pad, IFN-γ secretion by draining popliteal lymph node cells (ELISA); assay type: in vivo, Balb/c mice
Procedure: FIG. 4B: Priming of T cell responses depending on CRT. CT26 tumour cells were left untransfected or transfected with the indicated siRNAs, then treated with medium alone, mitomycin C or mitoxantrone and injected into the right food pad of Balb/c mice. Five days later, mononuclear cells from the draining popliteal lymph nodes were challenged with freeze-thawed CT26 cells, and IFN-γ secretion was assessed at 72 hrs.
FIG. 4C: Exogenous supply of CRT enhances the immunogenicity of CRT-negative dying cells. CT26 cells lacking CRT expression after depletion of CRT with a siRNA and mitoxantrone treatment or after mitomycin treatment were coated with rCRT (inserts) and then injected in the food pad, followed by assessment of the IFN-γ secretion by cells from the draining lymph nodes as in FIG. 4B.
(§2) Tumours were evaluated weekly, using a caliper.

DC = DC maturation ex vivo; assay type: cell-based; details: alone, over a large range of concentrations
CT26 colon cancer cells = assay: In vivo anti-cancer vaccination: treated tumour cells in one flank and live tumour cells in opposite flank simultaneously; set-up: species or system BALB/c mice
Procedure: FIG. 4A: In vivo anti-cancer vaccination depends on CRT. CT26 colon cancer cells were transfected with the indicated siRNAs, then treated with rCRT and/or mitoxantrone (as in FIG. 3D) and the anti-tumour response was measured by simultaneously challenging BALB/c mice with mitoxantrone treated tumour cells in one flank and untreated live tumour cells in the opposite flank.
FIG. 4D: CRT-mediated amelioration of the immune response against etoposide-treated tumour cells. CT26 cells were treated for 24 h with etoposide (or PBS) and rCRT was optionally absorbed to the cell surface (inserts), followed by simultaneous injection of the etoposide ±rCRT-treated tumour cells and live tumour cells in opposite flanks and monitoring of tumour growth.
as §2

COc1cccc2c1C(=O)c1c(O)c3c(c(O)c1C2=O)C[C@@](O)(C(=O)CO)C[C@@H]3O[C@H]1C[C@H](N)[C@H](O)[C@H](C)O1 [doxorubicin]
immunogenicity of cell death (protection against tumour growth, anti-tumour vaccination) (CT26 tumour cells [1]; dying CT26 cells treated with agent injected into one flank, live tumour cells in opposite flank 8 days later): elicited immunogenic cell death
phagocytosis of drug-treated tumour cells by DC (CT26 cells; within a few hours after treatment): acquired the property to be phagocytosed by DC quickly
induction of surface CRT (factor) (CRT [2]): 6
surface exposure of ERP57 (ERP57): specifically induced

O=C(/C=C/c1ccccc1)NC(NC(=S)Nc1cccc2cccnc12)C(Cl)(Cl)Cl (centres unmarked) [salubrinal]
therapeutic effect of single agent on established tumours, nu/nu mice (CT26 tumours [3]): no major therapeutic effect
induction of CRT exposure at the cell surface (cell surface CRT): efficiently induced
induction of immunogenic cell death by the inhibitor alone (CT26 tumour cells [1]; without cell death inducer): not sufficient to induce immunogenic cell death
CRT exposure on murine tumour cell lines (CRT [4]): induced CRT exposure
CRT exposure on human tumour cell lines (CRT [5]): induced CRT exposure
therapeutic effect combined with a cell death inducer (etoposide or mitomycin C), immunocompetent mice (CT26 tumours [6]): stable disease or complete tumour regression
therapeutic effect of single agent on established tumours, immunocompetent mice (CT26 tumours [6]): no major therapeutic effect

VKKKKIKREIKI-LKARKVRFSEKV (VKKKKIKREIKILKARKVRFSEKV; Artificial sequence including a fragment of GADD34 and a translocation motif.) [SEQ ID NO:4, fragment of GADD34 fused to a plasma membrane translocation motif]
exposure of calreticulin, HCT116 cells (calreticulin [7]): capable of inducing the exposure of calreticulin
therapeutic effect of combination with mitomycin C (CT26 colon cancer): synergistic therapeutic effects
exposure of calreticulin, CT26 cells (calreticulin [8]): capable of inducing the exposure of calreticulin

B1: rCRT: recombinant CRT protein, which binds to the surface of the cells (protein, UniProt P27797 18-417, looked up)
Calreticulin: EPAVYFKEQFLDGDGWTSRWIESKHKSDFGKFVLSSGKFYGDEEKDKGLQTSQDARFYALSASFEPFSNKGQTLVVQFTVKHEQNIDCGGGYVKLFPNSLDQTDMHGDSEYNIMFGPDICGPGTKKVHVIFNYKGKNVLINKDIRCKDDEFTHLYTLIVRPDNTYEVKIDNSQVESGSLEDDWDFLPPKKIKDPDASKPEDWDERAKIDDPTDSKPEDWDKPEHIPDPDAKKPEDWDEEMDGEWEPPVIQNPEYKGEWKPRQIDNPDYKGTWIHPEIDNPEYSPDPSIYAYDNFGVLGLDLWQVKSGTIFDNFLITNDEAYAEEFGNETWGVTKAAEKQMKDKQDEEQRLKEEEEDKKRKEEEEAEDKEDDEDKDEDEEDEEDKEEDEEEDVPGQAKDEL
therapeutic effect combined with a cell death inducer (etoposide or mitomycin C), immunodeficient mice (CT26 tumours [3]; intratumoural injection with etoposide or mitomycin C): not in immunodeficient
therapeutic effect of single agent on established tumours, nu/nu mice (CT26 tumours [3]): no major therapeutic effect
immunogenicity of mitoxantrone-treated CT26 cells (interferon-γ production by T cells from popliteal lymph node) (CT26 tumour cells [9]; cells injected into the foot pad): this defect was restored
immunogenicity of mitomycin-treated cells coated with rCRT (IFN-γ) (CT26 tumour cells [9]; rCRT absorbed to plasma membrane of mitomycin-treated cells): greatly enhanced the immunogenicity of cells that usually fail to induce an immune response
DC maturation (DC): could not promote DC maturation ex vivo
restoration of phagocytosis by DC in CRT-siRNA cells (CT26 cells; rCRT added to cell surface of CRT-siRNA transfected cells): could reverse the defect induced by the CRT-specific siRNA
immunogenicity of mitoxantrone-treated CT26 cells (efficacy of anti-tumour vaccination) (CT26 colon cancer cells; cells injected into the flank of Balb/c mice): this defect was restored
anti-tumour immune response to etoposide-treated cells coated with rCRT (CT26 colon cancer cells; etoposide-treated cells coated with rCRT): elicited a vigorous anti-tumour immune response in vivo
anti-cancer immune response to rCRT-coated live cells (CT26 colon cancer cells; rCRT absorbed to cell surface without prior treatment with cell death inducers): failed to elicit an anti-cancer immune response
effect of rCRT injected into a distant site (CT26 tumours [6]; contralateral subcutaneous rCRT plus intratumoural etoposide): did not ameliorate the antitumoural effects of intratumorally injected etoposide
therapeutic effect combined with a cell death inducer (etoposide or mitomycin C), immunocompetent mice (CT26 tumours [6]): able to cause tumour regression
therapeutic effect of single agent on established tumours, immunocompetent mice (CT26 tumours [6]): no major therapeutic effect
